Values of other authors as cited in US8771712B2, “Topical administration of acyclovir” (Emisphere Technologies, Inc., priority 2006, dated 2014).

Settings: humans, microdialysis

## Nc1nc2c(ncn2COCCO)c(=O)[nH]1 [acyclovir, 9-(2-hydroxyethoxymethyl) guanine]
After removal of the stratum corneum and infusion of 0.0005% noradrenaline
  Acyclovir concentration (dermis): 3.9 µg/mL
Application to intact skin
  Acyclovir in the dermis: no acyclovir was detected
